Experimental data published in PubChem BioAssay (NCI).
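Test compounds were applied to cells in 96-well plates for 48 hours at 5 doses. GI50 = concentration required for 50% inhibition of growth. TGI marks complete inhibition of growth.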 Where a SMILES comes first, the peptide text is derived from it. [ ]: non-standard residue; d: D form. The star is where a group is joined. Octanoyl = CCCCCCCC(=O)*; Aib = CC(C)(N)C(=O)O; tBu = CC(C)(C)*

Legend:
Experiment in all cases: growth of human tumour cells (NCI), 48 h
ACHN renal = tested on: ACHN renal
BT-549 breast = tested on: BT-549 breast
CAKI-1 renal = tested on: CAKI-1 renal
CCRF-CEM leukemia = tested on: CCRF-CEM leukemia
EKVX NSCLC = tested on: EKVX NSCLC
HCT-116 colon = tested on: HCT-116 colon
HL-60(TB) leukemia = tested on: HL-60(TB) leukemia
HT29 colon = tested on: HT29 colon
M14 melanoma = tested on: M14 melanoma
MDA-MB-435 = tested on: MDA-MB-435
MOLT-4 leukemia = tested on: MOLT-4 leukemia
NCI-H23 lung = tested on: NCI-H23 lung
SF-295 CNS = tested on: SF-295 CNS
SK-MEL-2 melanoma = tested on: SK-MEL-2 melanoma
SK-MEL-5 melanoma = tested on: SK-MEL-5 melanoma
UO-31 renal = tested on: UO-31 renal

Row | SMILES | TGI (ACHN renal) | TGI (BT-549 breast) | TGI (CAKI-1 renal) | TGI (CCRF-CEM leukemia) | TGI (EKVX NSCLC) | TGI (HCT-116 colon) | TGI (HL-60(TB) leukemia) | TGI (HT29 colon) | TGI (M14 melanoma) | TGI (MDA-MB-435) | TGI (MOLT-4 leukemia) | TGI (NCI-H23 lung) | TGI (SF-295 CNS) | TGI (SK-MEL-2 melanoma) | TGI (SK-MEL-5 melanoma) | TGI (UO-31 renal) | GI50 (CCRF-CEM leukemia) | GI50 (HL-60(TB) leukemia) | GI50 (SK-MEL-2 melanoma) | GI50 (NCI-H23 lung)
1 | CCOC(=O)CCC(NC(=O)c1ccc(Nc2nc3ccccc3nc2-c2cccs2)cc1)C(=O)OCC (stereo unspecified) | > 100 µM | > 100 µM | > 100 µM | > 100 µM | > 100 µM | > 100 µM | > 100 µM | > 100 µM | > 100 µM | > 100 µM | > 100 µM | > 100 µM | > 100 µM | 94.5 µM | > 100 µM | > 100 µM | – | – | – | –
2 | OC1CN2CCS[C@H]2C(O)C1O (stereo partly specified) | > 100 µM | > 100 µM | > 100 µM | > 100 µM | > 100 µM | > 100 µM | > 100 µM | > 100 µM | > 100 µM | > 100 µM | > 100 µM | > 100 µM | > 100 µM | > 100 µM | > 100 µM | > 100 µM | – | – | – | –
3 | O=C(Cc1ccc(Cl)c(Cl)c1)N(CCc1ccc(Cl)c(Cl)c1)CCN1CCCC1 | 3.28 µM | 7.04 µM | 3.1 µM | 3.12 µM | 3.78 µM | 3.09 µM | 3.35 µM | 3.56 µM | 3.56 µM | 3.38 µM | 2.98 µM | 3.95 µM | 3.84 µM | 3.36 µM | 3.41 µM | 3.46 µM | – | – | – | –
4 | O=C(CCc1cccc(O)c1)NCCc1ccc(O)cc1 | > 100 µM | > 100 µM | > 100 µM | > 100 µM | > 100 µM | > 100 µM | > 100 µM | > 100 µM | > 100 µM | > 100 µM | > 100 µM | > 100 µM | > 100 µM | > 100 µM | > 100 µM | > 100 µM | – | – | – | –
5 | Cc1cc(C)c2c(=O)n(CN3CCC(O)(c4ccccc4)CC3)sc2n1 | 37.9 µM | > 100 µM | > 100 µM | > 100 µM | 81.7 µM | > 100 µM | 62.3 µM | 98.9 µM | > 100 µM | 48.7 µM | 76.3 µM | 83.1 µM | > 100 µM | > 100 µM | > 100 µM | 33.8 µM | – | – | – | –
6 | CC1(C)CN=C(Nc2cccc(C(F)(F)F)c2)S1 | > 100 µM | > 100 µM | > 100 µM | > 100 µM | > 100 µM | > 100 µM | > 100 µM | > 100 µM | > 100 µM | > 100 µM | > 100 µM | > 100 µM | > 100 µM | > 100 µM | > 100 µM | > 100 µM | – | – | – | –
7 | N#CC1=C(N)OC(c2ccc([N+](=O)[O-])cc2)C1(C#N)C#N (stereo unspecified) | 23.8 µM | 33.1 µM | 13 µM | 43.3 µM | 39.6 µM | 34.8 µM | 7.84 µM | 22.9 µM | 38.9 µM | > 50.4 µM | 63.3 µM | 32.7 µM | > 71.3 µM | 23 µM | 31.9 µM | 11.5 µM | – | – | – | –
8 | COc1ccc(/C=C/C(=O)N[C@@H]2C(=O)N3[C@@H]2SC(C)(C)[C@@H]3C(=O)O)cc1 | > 100 µM | > 100 µM | > 100 µM | > 100 µM | > 100 µM | > 100 µM | > 100 µM | > 100 µM | > 100 µM | > 100 µM | > 100 µM | > 100 µM | > 100 µM | > 100 µM | > 100 µM | > 100 µM | – | – | – | –
9 | NCCCN1CCN(CC(=O)O)CCN(CCCN)CCN(CC(=O)O)CC1 | > 100 µM | > 100 µM | > 100 µM | > 100 µM | > 100 µM | > 100 µM | > 100 µM | > 100 µM | > 100 µM | > 100 µM | > 100 µM | > 100 µM | > 100 µM | > 76.1 µM | 21.3 µM | > 100 µM | – | – | – | –
10 | O=c1[nH]nc(Cc2ccc(Cl)cc2)n1/N=C\CC/C=N\n1c(Cc2ccc(Cl)cc2)n[nH]c1=O | > 100 µM | > 83.2 µM | > 100 µM | > 88.9 µM | 78.5 µM | > 100 µM | > 100 µM | > 100 µM | > 100 µM | > 100 µM | > 96.5 µM | > 100 µM | > 78.1 µM | > 69.7 µM | > 100 µM | > 100 µM | – | – | – | –
11 | O=C(c1cccnc1)N1N=C(c2ccc(Cl)cc2)CC1(O)c1cc(F)c(Cl)cc1Cl (stereo unspecified) | 53.8 µM | 69.1 µM | > 100 µM | > 100 µM | 76.5 µM | 52.8 µM | 47.9 µM | 75.8 µM | 91.9 µM | > 100 µM | > 100 µM | > 100 µM | 56.1 µM | 75.2 µM | 24.2 µM | > 100 µM | – | – | – | –
12 | NS(=O)(=O)c1ccc(CNc2nc(-c3cccs3)nc3ccc(I)cc23)cc1 | 58.3 µM | 27.8 µM | 22.8 µM | 59.7 µM | 29.3 µM | 28.1 µM | > 100 µM | 39.2 µM | 28.4 µM | 27.8 µM | 81.8 µM | 38.4 µM | 38 µM | 32.9 µM | 27 µM | 4.45 µM | 21.8 µM | 29.9 µM | 17.8 µM | –
13 | O=c1oc2ccc3ccccc3c2cc1-c1nc2ccccc2o1 | 29.9 µM | > 61.4 µM | 40.8 µM | > 100 µM | > 56.2 µM | > 53.6 µM | > 100 µM | 48.4 µM | > 56 µM | > 60.6 µM | > 79 µM | > 63.3 µM | > 59.3 µM | 60.1 µM | 58.8 µM | > 54.8 µM | – | – | – | –
14 | CN(C)c1ccc(/C=C(\NC(=O)c2ccccc2)C(=O)NC(CCC(=O)O)C(=O)O)cc1 (stereo unspecified) | > 100 µM | > 100 µM | > 100 µM | > 100 µM | > 100 µM | > 100 µM | > 100 µM | > 100 µM | > 100 µM | > 100 µM | > 100 µM | > 100 µM | > 100 µM | > 100 µM | > 100 µM | > 100 µM | – | – | – | –
15 | COc1cccc(N2C(=O)CSC2c2cc(OC)c(OC)c(OC)c2)c1 (stereo unspecified) | > 100 µM | 64.6 µM | > 100 µM | 65 µM | > 100 µM | > 100 µM | 98 µM | > 100 µM | > 100 µM | 17.6 µM | > 100 µM | > 100 µM | 97.8 µM | > 100 µM | > 100 µM | > 100 µM | – | – | – | –
16 | CCCCCCCC(=O)NC(C)(C)C(=O)NC(COC(C)(C)C)C(=O)NC(CC(C)C)C(=O)NC(C)(C)C(=O)NC(COC(C)(C)C)C(=O)NC(COC(C)(C)C)C(=O)NC(CC(C)C)C(=O)NC(C)(C)C(=O)NC(COC(C)(C)C)C(=O)NC(C(=O)NC(CC(C)C)C(=O)OC)C(C)CC (stereo unspecified) (Octanoyl-[Aib]S(tBu)L[Aib]S(tBu)S(tBu)L[Aib]S(tBu)IL-OMe; configuration not given here) | 20.8 µM | 13.1 µM | > 25 µM | 11.9 µM | 16.3 µM | > 25 µM | 15.6 µM | 11.9 µM | > 25 µM | > 25 µM | > 25 µM | 12.7 µM | > 25 µM | 13.5 µM | 16.2 µM | > 25 µM | – | – | – | –
17 | O=[N+]([O-])O.[Ga] | > 10000 µM | > 4640 µM | > 9820 µM | 3190 µM | 5620 µM | > 10000 µM | 1780 µM | > 7200 µM | > 10000 µM | > 10000 µM | 2130 µM | > 10000 µM | 1240 µM | 3270 µM | 1310 µM | > 7740 µM | – | – | 325 µM | 1260 µM
18 | Cn1c2ccccc2c(=NNc2ccccc2C(=O)O)c2ccccc21 | 48.2 µM | 61 µM | 91.2 µM | 72 µM | 38 µM | 37.7 µM | 44.5 µM | 38.1 µM | 53.5 µM | 39.6 µM | > 100 µM | 76.8 µM | 82.6 µM | 43.7 µM | 28 µM | 64.5 µM | – | – | – | –
19 | COc1cc([N+](=O)[O-])ccc1NC1=CC(=O)CCC1 | > 100 µM | > 100 µM | > 100 µM | > 100 µM | > 100 µM | > 100 µM | > 100 µM | > 100 µM | > 100 µM | > 100 µM | > 100 µM | > 100 µM | > 100 µM | > 100 µM | > 100 µM | > 100 µM | – | – | – | –
20 | CCOC(=O)c1[nH]c2ccccc2c1C(=O)C[C@H](NC(=O)C(F)(F)F)C(=O)OC | > 100 µM | > 100 µM | > 100 µM | > 100 µM | > 100 µM | > 100 µM | > 100 µM | > 100 µM | > 100 µM | > 100 µM | > 100 µM | > 100 µM | > 100 µM | > 100 µM | > 100 µM | > 100 µM | – | – | – | –
21 | O=C(OC(=C(c1ccccc1)c1ccccc1)N1CCCC1=S)C(c1ccccc1)c1ccccc1 | > 10 µM | > 10 µM | > 10 µM | > 10 µM | > 10 µM | > 10 µM | > 10 µM | > 10 µM | > 10 µM | > 10 µM | > 10 µM | > 10 µM | > 10 µM | > 10 µM | > 10 µM | > 10 µM | – | – | – | –
